Experimental data: US9434688B2, “Indole derivatives as selective androgen receptor modulators (SARMS)” (Janssen Pharmaceutica, NV, priority 2004, dated 2016)
Several values for one entry are separate records, joined by “and”; a condition that tells them apart may be missing. Equal values may be shown once.

Tests used:
androgen receptor [1] = biological target: T1, androgen receptor (Rattus norvegicus, UniProt P15207); assay: COS-7 Whole-Cell Androgen Receptor Binding Assay, Adenovirus Transduction
T1 sequence (P15207 1-902): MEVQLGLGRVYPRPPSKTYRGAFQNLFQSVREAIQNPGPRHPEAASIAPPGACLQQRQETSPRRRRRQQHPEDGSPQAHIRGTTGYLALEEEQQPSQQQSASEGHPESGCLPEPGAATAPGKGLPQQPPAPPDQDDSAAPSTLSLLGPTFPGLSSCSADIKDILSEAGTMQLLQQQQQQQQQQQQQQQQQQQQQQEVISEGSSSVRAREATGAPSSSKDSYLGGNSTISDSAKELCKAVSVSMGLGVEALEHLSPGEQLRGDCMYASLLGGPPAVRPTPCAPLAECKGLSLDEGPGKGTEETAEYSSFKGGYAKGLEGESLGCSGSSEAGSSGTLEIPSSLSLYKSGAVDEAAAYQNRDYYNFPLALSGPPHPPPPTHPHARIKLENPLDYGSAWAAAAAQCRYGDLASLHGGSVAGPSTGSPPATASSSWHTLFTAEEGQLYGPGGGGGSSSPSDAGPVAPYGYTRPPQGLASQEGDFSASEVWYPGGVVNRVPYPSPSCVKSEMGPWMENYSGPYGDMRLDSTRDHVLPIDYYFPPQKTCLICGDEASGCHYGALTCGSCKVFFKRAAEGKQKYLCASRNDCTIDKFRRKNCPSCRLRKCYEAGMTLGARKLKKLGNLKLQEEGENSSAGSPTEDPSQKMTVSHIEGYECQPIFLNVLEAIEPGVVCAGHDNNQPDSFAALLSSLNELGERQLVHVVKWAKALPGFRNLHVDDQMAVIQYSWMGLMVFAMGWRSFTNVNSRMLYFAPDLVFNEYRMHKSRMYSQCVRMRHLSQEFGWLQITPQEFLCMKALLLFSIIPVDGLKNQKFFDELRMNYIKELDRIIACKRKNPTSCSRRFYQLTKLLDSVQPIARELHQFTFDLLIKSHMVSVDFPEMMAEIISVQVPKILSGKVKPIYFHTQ
Description: COS-7 cells were plated in 96-well plates at 20,000 cells per well, in a solution of DMEM/F12 (GIBCO) containing 10% (v/v) charcoal-treated fetal bovine serum (Hyclone) and lacking phenol red. The cells were then incubated overnight at 37° C. in 5% (v/v) humidified CO2.
Test compound solutions were prepared by diluting the test compound in 100% (v/v) DMSO, if necessary.
Next, 1 mL of DMEM/F12 lacking phenol red was pipetted into each of the wells of a 2-mL 96-well assay block. […] The wells were carefully mixed by pipette.
In a 15 mL or 50 mL sterile centrifuge tube, a dilution in DMEM/F12 of the adenovirus AdEasy+rAR at a moi of 1:50 per well was prepared.
The medium was removed from the 96-well plates by inversion and the plates dried very briefly, inverted, on a sterile towel. As soon as possible after medium removal, 40 μL of the diluted test compound was added to each well, in duplicate. […] The plates were then incubated for 48 hours at 37° C. in 5% (v/v) humidified CO2.
The medium was removed from the above incubated plates by inversion and dried. Each well was then washed with 0.35 mL of 1×PBS. The PBS was then removed from the plates by inversion and the plates dried.
To each well was then added 50 μL of 0.5% (v/v) Triton X-100 (Sigma) in 1×PBS and the plates placed on a rotary shaker for 5 min. The contents of each well were then transferred to an OptiPlate-96 (Packard) scintillation plate. To each well was then added 0.2 mL of Microscint-20 (Packard) and the wells counted on a TopCount (Packard).
Percent inhibition was determined by testing dilutions of the test compound (usually duplicates of 10 μM) in the binding assay. Counts per well were measured and percents of inhibition determined. […] Counts per well were measured and IC50s determined by linear regression.

androgen receptor [2] = biological target: T1, androgen receptor; assay: Androgen Receptor Binding Using Rat Ventral Prostate Cytosol; set-up: from tissue; host or cells: ventral prostate cytosol of castrated male Sprague Dawley or Wistar rats; settings: 3 µM
[3] = test system: castrated male Sprague Dawley rats; assay: Ventral Prostate and Seminal Vesicle Weight In Vivo Assay; set-up: species or system rat; key: active: non weight adjusted prostate weight was ≦40 mg or the % Inhibition prostate weight, body weight adjusted was ≧40% @ 2 mg/day dosage; inactive: they did not meet the specified criteria defined above; settings: immature castrated male rats, once daily for five days, with testosterone propionate 2 mg/kg subcutaneously
Description: Immature (approximately 50 g) castrated male Sprague Dawley rats (Charles River) were treated once daily for five days with test compound (usually given orally at 40 mg/kg in a volume of 0.3 mL, in 30% cyclodextrin or 0.5% methylcellulose vehicle) and with testosterone propionate (given subcutaneously by injection at the nape of the neck at 2 mg/kg, in a volume of 0.1 mL in sesame oil). On the sixth day, the rats were euthanized by asphyxiation in carbon dioxide. Ventral prostates and seminal vesicles were removed and their wet weights determined.
A test compound was said to be “active” if the non weight adjusted prostate weight was ≦40 mg or the % Inhibition prostate weight, body weight adjusted was ≧40% @ 2 mg/day dosage.

In the case of `CCSCC(O)c1cc2cc([N+](=O)[O-])c(C(F)(F)F)cc2[nH]1` (racemic) [compound 158], the “% Inhibition” value (androgen receptor [1]) is reported as 62% and 56%, the “% Inhibition” value (androgen receptor [2]) is reported as 52% and the “active / inactive: inhibition of testosterone-enhanced prostate weight” value [3] is reported as “inactive”.
